Data: US20240301408A1, “MICRORNA 195 COMPOSITIONS AND METHODS FOR TREATING COGNITIVE IMPAIRMENT” (UNITED STATES GOVERNMENT AS REPRESENTED BY THE DEPARTMENT …, priority 2021, published 2024)

Key:
BV2 cells [1] = test: LPS-induced gene expression (pdcd4, smad7, il10a) in BV2 microglia with miR-195-5p over-expression; assay type: cell-based
Method: (§1) For example, LPS (at 0.2 μg/ml) treatment for overnight in BV2 cells leads to increased expression of pdcd4 and smad7 (FIG. 13A) and reduced expression of il10ra (FIG. 13C). […] Over-expression of miR-195-5p also attenuates LPS-induced pro-inflammatory cytokine release (IL-6 and TNFα; FIG. 13B). […] For these experiments, purified exosomes were derived from human APOE3/3 and 4/4 iPSC-derived astrocytes w/wo miR-195 over-expression detected by an exosome marker, ALIX. Fluorescence labeled exosomes were taken up by IBA1+ microglia cells.
(§2) Over-expression of miR-195-5p in microglia inhibits LPS-induced proinflammatory responses and augments anti-inflammatory responses. […] However, over-expression of miR-195-5p reduces expression levels of pdcd4 and smad7 and increases il10a expression in the presence of LPS. Over-expression of miR-195-5p also attenuates LPS-induced pro-inflammatory cytokine release (IL-6 and TNFα; FIG. 17B).

BV2 cells [2] = test: LPS-induced pro-inflammatory cytokine release (IL-6, TNFα) in BV2 microglia with miR-195-5p over-expression; assay type: cell-based
Method: as §1, §2

[3] = tested on: ApoE4+/+ or ApoE3+/+ knock-in (KI) mice; test: novel object recognition (NOR) after hippocampal AAV2 injection, ApoE KI mice; assay type: in vivo, mouse
Text: Animal models. Human ApoE4^+/+ or ApoE3^+/+ knock-in (KI) mouse models without (Grootendorst J et al., Behavioural brain research 2005, Rodriguez G A et al., Learn Mem 2013, and Wang C et al., Neurobiology of disease 2005) or with 5×FAD background (Balu D et al., Neurosci Lett 2019, and Tai L M et al., J Lipid Res 2017) were genotyped (Zhong L et al., Mol Neurodegener 2016). Sex as a biological variable was taken into considerations with inclusion of both male and female mice in the experiments.
Stereotaxic injection and behavior studies. Eight to nine weeks old male and female ApoE3^+/+ and ApoE4^+/+ KI mice without 5×FAD background (N=19-23/group), or with 5×FAD background (N=15-17/group) were placed in the stereotaxic apparatus with AAV2 or scramble virus administered into the dorsal CA1 regions of bilateral hippocampal brain regions using pressure injection (Labonte B et al., Nat Med 2017, and Passini M A et al., The Journal of neuroscience 2006). Injection volumes (0.5-2.0 μl) were delivered over 10 min to avoid tissue damage. Six to nine months after viral delivery, mice were tested with the NOR task (Zhu L et al., Proc Natl Acad Sci USA 2015, Elder G A et al., J Neurotrauma 2012, and Howlett D R et al., Brain Res 2004). Mice were randomized for genotype and sex, and blinded throughout the behavior data collection and analysis, surgical manipulations, and sample collection.

## UAGCAGCACAGAAAUAUUGGC (chemistry not given here) [miR-195-5p, over-expressed via AAV2-containing miR-195-5p from ABM Inc]
BV2 cells [1]; LPS overnight
  expression levels of pdcd4 and smad7: dramatically reduces
BV2 cells [1]; in the presence of LPS
  il10a expression: increases
BV2 cells [2]
  LPS-induced pro-inflammatory cytokine release (IL-6 and TNFα): attenuates
[3]; ApoE3+/+ KI mice
  NOR, scramble versus miR-195-5p over-expressing animals: no statistically significant differences
[3]; ApoE4+/+ KI mice, viral delivery to bilateral hippocampi, scramble controls 42.9%
  NOR preference index: 61.5%
[3]; ApoE4+/+ KI mice, scramble controls −0.144
  NOR discrimination index: 0.231
